Test results: patent US20160304957A1, “TREATMENT AND MODULATION OF GENE EXPRESSION AND SKIN AGING” (DSM NUTRITIONAL PRODUCTS LTD., priority 2006, published 2016)

Test system: HaCaT human keratinocytes
Assay: Affymetrix GeneChip microarray, transcriptional response to β-carotene and/or UVA
Format: cell-based
Procedure: The cell culture experiments were carried out as described. Briefly, a subclone of passage 65 HaCaT keratinocytes, selected for differentiation capacity, was used at passages 16 to 23 after subcloning. 2×10^5 cells were seeded per 60 millimeter dish. Starting the following day, the cells were pretreated for 2 days with β-carotene at 1.5 μM, a typical concentration in human plasma after moderate dietary supplementation)
β-carotene-containing medium was prepared as follows. Fresh all-E-β-carotene (DSM Nutritional Products, Kaiseraugst, Switzerland) stock solution in THF (containing 0.025% BHT; Fluka Chemie A G, Switzerland) was diluted 1:2 with ethanol and added to cell culture medium to a final concentration of 1.5 μM β-carotene. The solvent concentration in the medium was 0.5% for all treatments. β-carotene-containing medium was prepared fresh for the daily medium changes.
On day 3 of the experiment, the cells were irradiated with a Hönle sun lamp Sol 500 (270 kJ/m^2; Dr. Hönle, Germany).
Five independent, factorially designed cell irradiation experiments were analyzed by microarray hybridization. For each experiment, one chip was hybridized per treatment condition. GeneChip® analysis was done as described in [132], which is incorporated by reference, as if recited in full herein. Gene regulation by β-carotene and/or UVA was calculated relative to placebo.
Changes in gene expression were included in further analysis only if the change factor was […], and if unpaired t-tests yielded p values≦0.05. Upregulations by a […] are labeled bold, downregulations by a change factor of […] are labeled bold italics. (Table 1) To identify the pathways affected by the treatments functional information on the genes was retrieved from public literature databases.

SMILES: CC1=C(/C=C/C(C)=C/C=C/C(C)=C/C=C/C=C(C)/C=C/C=C(C)/C=C/C2=C(C)CCCC2(C)C)C(C)(C)CCC1 [β-carotene, All-E-β-carotene]
- NCF2; p67-phox; neutrophil oxidase factor (M32011) change factor (UVA and β-carotene 1.5 μM): −0.16
- NF-κB subunit (S78771) change factor (UVA and β-carotene 1.5 μM): 0.56
- NF-κB subunit (X61498) change factor (UVA and β-carotene 1.5 μM): 0.7
- NFκB; p50 (S76638) change factor (UVA and β-carotene 1.5 μM): 0.55
- NOL1; p120 nucleolar antigen (X55504) change factor (UVA and β-carotene 1.5 μM): 0.94
- NOTCH3 (U97669) change factor (UVA and β-carotene 1.5 μM): −1.37
- NOV (X96584) change factor (UVA and β-carotene 1.5 μM): 0.72
- NOXA (D90070) change factor (UVA and β-carotene 1.5 μM): 0.74
- NRF1 (L24123) change factor (UVA and β-carotene 1.5 μM): −0.65
- NRF2, subunit beta 1 (U13045) change factor (UVA and β-carotene 1.5 μM): −0.11
- OSR1; oxidative-stress responsive 1 (AB017642) change factor (UVA and β-carotene 1.5 μM): 0.59
- PAR-1; thrombin receptor (M62424) change factor (UVA and β-carotene 1.5 μM): −0.05
- PAR-2; proteinase activated receptor-2 (U34038) change factor (UVA and β-carotene 1.5 μM): 1.91
- PAR-2; proteinase activated receptor-2 (U34038, second entry) change factor (UVA and β-carotene 1.5 μM): 1.34
- PAR-2; proteinase activated receptor-2 (U67058) change factor (UVA and β-carotene 1.5 μM): 3.32
- PAR-4; protease-activated receptor 4 (AF055917) change factor (UVA and β-carotene 1.5 μM): −0.57
- RAIDD; death adaptor molecule (U79115) change factor (UVA and β-carotene 1.5 μM): −0.66
- RB1 (L49229) change factor (UVA and β-carotene 1.5 μM): −1.13
- RB2/p130 (X74594) change factor (UVA and β-carotene 1.5 μM): −0.85
- RETSDR1; retinal short-chain dehydrogenase/reductase (AF061741) change factor (UVA and β-carotene 1.5 μM): −0.06
- RPA; replication protein A 14 kda subunit (rpa) (L07493) change factor (UVA and β-carotene 1.5 μM): −0.52
- RXRα (U66306) change factor (UVA and β-carotene 1.5 μM): −0.61
- RXRα (X52773) change factor (UVA and β-carotene 1.5 μM): −0.57
- Requiem (AF001433) change factor (UVA and β-carotene 1.5 μM): 0.32
- SMAD 1 (U59423) change factor (UVA and β-carotene 1.5 μM): −0.57
- SMAD3 (U68019) change factor (UVA and β-carotene 1.5 μM): 0.01
- SMAD3 (U68019, second entry) change factor (UVA and β-carotene 1.5 μM): −0.09
- SMAD4 (U44378) change factor (UVA and β-carotene 1.5 μM): −0.67
- SMAD5 (U59913) change factor (UVA and β-carotene 1.5 μM): −0.84
- SMAD6 (AF035528) change factor (UVA and β-carotene 1.5 μM): −24.2
- SMAD7 (AF010193) change factor (UVA and β-carotene 1.5 μM): −0.63
- SMRT (U37146) change factor (UVA and β-carotene 1.5 μM): −1.22
- STK15; BTAK (AF011468) change factor (UVA and β-carotene 1.5 μM): −1.85
- TDAG51; PQ-rich protein; PHLDA1 (Z50194) change factor (UVA and β-carotene 1.5 μM): 6.19
- TGFβ; transforming growth factor β (X02812) change factor (UVA and β-carotene 1.5 μM): 0.46
- TIAR; nucleolysin tiar (M96954) change factor (UVA and β-carotene 1.5 μM): −0.08
- TIEG, EGRα (AF050110) change factor (UVA and β-carotene 1.5 μM): −0.11
- TLR3; toll-like receptor 3 (U88879) change factor (UVA and β-carotene 1.5 μM): −0.91
- TOP2; topoisomerase II (J04088) change factor (UVA and β-carotene 1.5 μM): −0.86
- TRADD; TNF receptor-1 associated protein (L41690) change factor (UVA and β-carotene 1.5 μM): −0.85
- TRAIL; TNF-related apoptosis inducing ligand (U37518) change factor (UVA and β-carotene 1.5 μM): −2.66
- TRIP14; ‘2-5’ oligoadenylate synthetase (AJ225089) change factor (UVA and β-carotene 1.5 μM): 0.67
- TRIP (U77845) change factor (UVA and β-carotene 1.5 μM): −1.35
- TSSC3 (AF035444) change factor (UVA and β-carotene 1.5 μM): 0.7
- TSSC3/IPL (AF001294) change factor (UVA and β-carotene 1.5 μM): 1.02
- VEGF (AF022375) change factor (UVA and β-carotene 1.5 μM): 0.78
- VEGF (AF024710) change factor (UVA and β-carotene 1.5 μM): 1.86
- VEGF (M63978) change factor (UVA and β-carotene 1.5 μM): 1.09
- VEGFR2; VEGF receptor 2; KDR; FLK-1kdr/flk-1 (AF035121) change factor (UVA and β-carotene 1.5 μM): −0.28
- WEE1 (X62048) change factor (UVA and β-carotene 1.5 μM): 0.05
- WNT5A (I20861) change factor (UVA and β-carotene 1.5 μM): −2.22
- WNT5A (I20861, second entry) change factor (UVA and β-carotene 1.5 μM): −3.34
- XRCC4 (U40622) change factor (UVA and β-carotene 1.5 μM): −0.01
- bFGF; basic fibroblast growth factor; FGF2 (M27968) change factor (UVA and β-carotene 1.5 μM): 0.82
- bilirubin udp-glucuronosyltransferase isozyme 2 (M57951) change factor (UVA and β-carotene 1.5 μM): −0.66
- bullous pemphigoid autoantigen bp180 (M91669) change factor (UVA and β-carotene 1.5 μM): −0.57
- c-myc (V00568) change factor (UVA and β-carotene 1.5 μM): 3.22
- c-myc (V00568, second entry) change factor (UVA and β-carotene 1.5 μM): 2.45
- c-myc binding protein (mbp-1) (M55914) change factor (UVA and β-carotene 1.5 μM): 0.54
- caspase 2, ICH-1S (U13022) change factor (UVA and β-carotene 1.5 μM): −0.62
- caspase 7 (U67319) change factor (UVA and β-carotene 1.5 μM): 0.31
- ceruloplasmin (ferroxidase) (M13699) change factor (UVA and β-carotene 1.5 μM): 1
- collagen type IV, α-2 (COL4A2) (X05610) change factor (UVA and β-carotene 1.5 μM): −0.98
- collagen type IV, α-5 (COL4A5) (M58526) change factor (UVA and β-carotene 1.5 μM): −1.16
- collagen type IV, α-6 (COL4A6) (D21337) change factor (UVA and β-carotene 1.5 μM): −0.71
- collagen type VII, α-1 (COL7A1) (L02870) change factor (UVA and β-carotene 1.5 μM): −0.83
- connexin 31 (AF099730) change factor (UVA and β-carotene 1.5 μM): 2.3
- connexin 45 (U03493) change factor (UVA and β-carotene 1.5 μM): 0.26
- coproporphyrinogen oxidase (D16611) change factor (UVA and β-carotene 1.5 μM): −0.7
- cyclin E2 (AF091433) change factor (UVA and β-carotene 1.5 μM): 0.26
- cyclin E (M73812) change factor (UVA and β-carotene 1.5 μM): 1.75
- desmocollin type 4 (D17427) change factor (UVA and β-carotene 1.5 μM): −1.71
- ferritin heavy chain (L20941) change factor (UVA and β-carotene 1.5 μM): 0.59
- frizzled-2 (I37882) change factor (UVA and β-carotene 1.5 μM): −1.38
- frizzled-6 (AB012911) change factor (UVA and β-carotene 1.5 μM): −1.16
- haemochromatosis protein (hla-h) (U60319) change factor (UVA and β-carotene 1.5 μM): −0.61
- hsp40; heat shock protein 40 (U40992) change factor (UVA and β-carotene 1.5 μM): −0.07
- integrin α6 (X53586) change factor (UVA and β-carotene 1.5 μM): −0.76
- integrin α6b (S66213) change factor (UVA and β-carotene 1.5 μM): −0.46
- integrin α6b (S66213, second entry) change factor (UVA and β-carotene 1.5 μM): −0.73
- jagged2 (jag2) (AF029778) change factor (UVA and β-carotene 1.5 μM): −0.67
- keratin 2e (KRT2E); Keratin 2A (AF019084) change factor (UVA and β-carotene 1.5 μM): −0.69
- keratin 5 (M21389) change factor (UVA and β-carotene 1.5 μM): 0.81
- keratin 15 (J00124) change factor (UVA and β-carotene 1.5 μM): 0.96
- keratin 16 (M28439) change factor (UVA and β-carotene 1.5 μM): −0.38
- keratin 17 (Z19574) change factor (UVA and β-carotene 1.5 μM): 0.6
- mKI67a mrna (long type) for antigen of monoclonal antibody KI-67 (X65550) change factor (UVA and β-carotene 1.5 μM): −0.87
- mKI67a mrna (long type) for antigen of monoclonal antibody KI-67 (X65550, second entry) change factor (UVA and β-carotene 1.5 μM): −1.59
- ornithine decarboxylase (M33764) change factor (UVA and β-carotene 1.5 μM): 0.57
- ornithine decarboxylase (X16277) change factor (UVA and β-carotene 1.5 μM): 0.37
- p21; wild-type p53 activated fragment-1 (WAF1) (U03106) change factor (UVA and β-carotene 1.5 μM): 0.21
- p33; ING1b (AB024401) change factor (UVA and β-carotene 1.5 μM): 0.64
- p160ROCK (U43195) change factor (UVA and β-carotene 1.5 μM): −0.55
- protoporphyrinogen oxidase (D38537) change factor (UVA and β-carotene 1.5 μM): −0.54
- rTS α (X67098) change factor (UVA and β-carotene 1.5 μM): −0.47
- serpinB1 (M93056) change factor (UVA and β-carotene 1.5 μM): 0.57
- stimulator of Fe transport (AF020761) change factor (UVA and β-carotene 1.5 μM): 1.03
- thioredoxin reductase (X91247) change factor (UVA and β-carotene 1.5 μM): 1.48
- thymidylate synthase (X02308) change factor (UVA and β-carotene 1.5 μM): −0.56
- transferrin receptor (X01060) change factor (UVA and β-carotene 1.5 μM): 0.91
- uroporphyrinogen III synthase (J03824) change factor (UVA and β-carotene 1.5 μM): −0.61
- α topoisomerase truncated-form (L47276) change factor (UVA and β-carotene 1.5 μM): −0.81
- reduction of UVA induction of MMP-10 (β-carotene 1.5 μM, 5 hours after UVA): 30%
